One data set deals with EGFP‐MDM2. In words: EGFP-MDM2 fluorescence / live imaging degradation assay. It counts as cell-based. How it is done:
HeLa cells were cultured in DMEM (Welgene, LM001‐05) supplemented with 10% FBS (Welgene, S001‐07). For transient transfection, the cells were seeded at ≈70% confluence. The following day, transfection was performed using Lipofectamine 3000 (Invitrogen, L3000015) for 24 h according to the manufacturer's protocol. The cells were transfected with 100 ng of EGFP‐MDM2 per well in the 96‐well plate and were transfected with 2 µg of MDM2 WT and 2 µg of HA‐ubiquitin, total 4 µg per well in the 6‐well plate.
To construct the EGFP‐MDM2 plasmid DNA, MDM2 WT was amplified by PCR using specific primers. The PCR products were digested with BamH1 and EcoR1 to generate compatible ends. The plasmid backbone, EGFP‐C1, previously digested with the same enzyme, was ligated into the digested PCR product using T4 ligase (Biolabs, M0202S). The resulting plasmid construct was confirmed using restriction enzyme digestion and DNA sequencing. MDM2 WT (#16233) and HA‐ubiquitin (#18712) were purchased from Addgene (used primer sequences, see Table S2, Supporting Information).
Real‐time Live cell imaging (phase contrast, EGFP fluorescence) was performed to monitor EGFP‐MDM2 intensity at 7 min intervals after compound treatment using Cytation5 (Agilent) laser autofocus conditions to capture EGFP fluorescence to assess intensity. For fluorescence imaging, the cells were fixed using 4% PFA and washed three times with 1X dPBS. Fluorescence imaging was performed using the Cytation5. The intensity of fluorescence was assessed by tracking the fluorescence of individual cells in each image using the Time‐lapse analyzer or ROI measure feature of the Fiji ImageJ software (Version 1.54 h, USA).

Data set [1] concerns the target T1, MDM2 (Homo sapiens, UniProt Q00987). In words: MDM2 degradation by western blot in hBMSCs. It counts as cell-based. The arrangement: endogenous in cells; host or cells: hBMSCs. To be noted: for decrease in MDM2 levels compared to the basal level / MDM2 degradation (western blot): 10 μΜ for 1 h. How it is done: Human Bone Marrow‐derived Mesenchymal Stem Cells (hBMSCs) were provided by Professor Lee's laboratory, and cells from passages four to nine were used for all experiments. hBMSCs were cultured in alpha‐minimum essential medium (Welgene, LM008‐01) supplemented with 10% Fetal Bovine Serum (FBS) (Gibco, US origin, 16000–044) and 1% penicillin/streptomycin (Gibco, 15140‐122).
(§1) After discarding the medium and washing the cells twice with cold dPBS, the cells were collected using a scraper and lysed using RIPA buffer (GenDEPOT, R4200‐010) containing protease and phosphatase inhibitors (GenDEPOT, P3200‐001). The collected samples were centrifuged at 13 200 rpm for 10 min at 4 °C, and the supernatant containing total protein was collected. SDS‐PAGE gels (10–12%) were prepared, and protein samples were mixed with 5X loading buffer containing reducing agent (Biosesang, S2002) and heated at 98 °C for 5 min. Equal amounts of protein samples were loaded onto a gel, separated by electrophoresis, and transferred onto nitrocellulose membranes using a Dry Transfer Stacks Kit (Invitrogen, IB23001). The membrane was blocked with 5% nonfat milk in 1X TBST for 1 h at room temperature to prevent nonspecific binding. The membranes were incubated with primary antibodies specific to the target proteins overnight at 4 °C with gentle shaking. The next day, the membrane was washed three times with TBST at 10 min intervals to remove unbound primary antibodies. The membranes were incubated with secondary antibodies (anti‐rabbit and anti‐mouse) conjugated to horseradish peroxidase (HRP) for 1 h at room temperature. The membrane was washed three times with 1X TBST at 10 min intervals to remove unbound secondary antibodies. After washing, a chemiluminescent substrate (ECL, Millipore, WBULS0100) was applied to the membrane to visualize protein bands using a chemiluminescence detector (for the antibodies used, see Table S2, Supporting Information).
The DC50 and Dmax values were calculated by western blot band quantification according to compound concentrations. The quantification value was normalized to the value relative to the untreated group and calculated using the sigmoidal dose‐response (variable slope) equation in GraphPad Prism.
Target sequence in this assay (Q00987 whole entry): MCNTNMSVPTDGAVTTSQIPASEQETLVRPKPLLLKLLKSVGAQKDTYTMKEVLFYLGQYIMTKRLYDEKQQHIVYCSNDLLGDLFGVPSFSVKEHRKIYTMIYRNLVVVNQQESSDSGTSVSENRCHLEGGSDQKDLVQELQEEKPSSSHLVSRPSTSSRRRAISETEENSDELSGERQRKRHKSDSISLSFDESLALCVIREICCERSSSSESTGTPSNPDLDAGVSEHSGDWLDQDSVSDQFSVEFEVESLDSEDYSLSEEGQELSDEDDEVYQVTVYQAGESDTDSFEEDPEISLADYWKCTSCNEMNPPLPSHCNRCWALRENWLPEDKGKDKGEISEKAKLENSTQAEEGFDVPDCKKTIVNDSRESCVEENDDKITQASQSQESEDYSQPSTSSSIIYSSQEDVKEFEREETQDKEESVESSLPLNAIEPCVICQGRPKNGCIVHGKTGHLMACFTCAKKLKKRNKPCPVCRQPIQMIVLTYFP
Background: A western blot detects proteins with antibodies after separation by electrophoresis.

Data set [2] addresses T1, MDM2. In words: Microscale thermophoresis (MST) binding assay. The settings on record: His-Tag MDM2, n = 3, read-out: dissociation constant (Kd). The arrangement: made in house; host or cells: E. coli BL21 (DE3). In general terms: Microscale thermophoresis detects binding through changes in fluorescence in a small temperature gradient.
Target sequence in this assay (Q00987 whole entry, species assumed): as the sequence (Q00987 whole entry) above
Protocol: E. coli BL21 (DE3) competent cells transformed with pSPEL870 were used to express MDM2 protein.^[ [27] ^] The recombinant strain was cultured in 500 mL 2XYT at 37 °C until the optical density (OD600 ) reached 0.5. Protein expression was induced by adding 0.2 mM isopropyl β‐D‐1‐thiogalactopyranoside (IPTG; Bioshop, Canada) at 20 °C overnight. […] The protein was purified using Ni‐NTA resin (Qiagen, Germany), according to the manufacturer's protocol. The purified protein was buffer exchanged with phosphate‐buffered saline (PBS, pH 7.4) using a centrifugal filter unit (MWCO: 10 K; Merck Millipore, USA). The protein was stored at –20 °C in PBS with 20% glycerol and 1 mM dithiothreitol (DTT).
The His‐Tag MDM2 protein was labeled using a His‐Tag Labeling Kit RED‐tris‐NTA second Generation (NanoTemper, MO‐L018) according to the manufacturer's instructions. […] The final mixtures were transferred to capillaries (NanoTemper, MO‐K022) and the samples were measured using a Monolith NT.115Pico (NanoTemper) instrument (auto LED power; medium MST power). […] The signals were represented as normalized changes in fluorescence (Fnorm ) upon ligand binding. Baseline‐corrected normalized fluorescence (DFnorm ) was obtained from Fnorm values using MO Affinity Analysis, and the dissociation constants (Kd ) were determined by curve fitting (variable slope model) using GraphPad Prism 10.
The target in data set [3] is T1, MDM2. In words: Immunoblot with the intracellular proteasome system blocked by a proteasome inhibitor. It is filed as cell-based. To be noted: 0.5–2 μΜ carfilzomib with PROTAC. As to the method:
as §1, with “After washing, a chemiluminescent substrate (ECL, Millipore, WBULS0100) was applied to the membrane to visualize protein bands using a chemiluminescence detector (for the antibodies used, see Table S2, Supporting Information).” left out
Target sequence in this assay (Q00987 whole entry, species assumed): as the sequence (Q00987 whole entry) above

The test system of data set [4] is hBMSCs. As to the kind of experiment: Cell viability / apoptosis of hBMSCs. It is filed as cell-based, human.
For data set [5], the system named is hBMSCs. In words: Calcium deposit staining (X-Rhod-1) in hBMSCs. It is filed as cell-based, human. To be noted: X‐Rhod‐1, p < 0.05. How it is done: hBMSCs were differentiated in the presence of the 10 mM β‐glycerophosphate (Sigma‐Aldrich, G9422) and 50 µM ascorbic acid (Sigma‐Aldrich, A4403) in culture medium for 10 d. Subsequently, the cells were fixed with 4% PFA for 30 min, followed by two washes with Mg^2+‐and Ca^2+‐free dPBS (Welgene, LB‐204). To stain for calcium, X‐Rhod‐1 (Invitrogen, X14210) dye was diluted in Mg^2+‐and Ca^2+‐free dPBS at a concentration of 1 µM and incubated at room temperature in the dark for 1 h. The cells were then washed five times with Mg^2+‐and Ca^2+‐free dPBS at 10 min intervals. The samples were observed under a Cytation5 microscope (Agilent Technologies) at a wavelength of 595 nm.

Another data set relates to osteocalcin (OCN). In words: Immunostaining of osteogenic markers in hBMSCs. It is filed as cell-based, human. The settings on record: 10 µM.
Data set [6] deals with OVX-induced osteoporosis model. As to the kind of experiment: Ovariectomy (OVX)-induced osteoporosis mouse model. It is filed as in vivo, C57BL6 mice. The settings on record: OVX mice. How it is done:
-Establishment of Ovariectomized Mice Model: The experimental protocols were approved by the IACUC (Approval code: IACUC230118) at the CHA Laboratory Animal Research Center. The mice were handled in compliance with the Guidelines for the Care and Use of Animals at the institution. Female C57BL6 mice (seven weeks old (n = 57)) were randomly divided into six groups (n = 8-10): […] All surgeries and pump implantations were performed under aseptic conditions. Mice were anesthetized before removing both sides of the ovaries. In the fourth week following surgery, an Alzet osmotic pump (Durect Corp, #1004) was implanted in the mice. […] Images were acquired at an effective pixel size of 50 μm (130 kV and 60 μA radiation source; 1.0 mm aluminum filter). Subsequently, 3D images were reconstructed from the 2D X-ray projections by implementing the Feldkamp algorithm, and appropriate image corrections, including ring artifact correction, beam hardening correction, and fine-tuning, were processed using NRecon software (SkyScan 1173, Belgium). The dynamic image range (contrast limits) was determined at 0-0.3 in units of attenuation coefficient and was applied to all datasets for optimum image contrast. After acquisition and reconstruction of the datasets, images were first reoriented on each 3D plane using DataViewer software (SkyScan 1173, Belgium) to align the long axis of the femur parallel to the coronal and sagittal planes. Next, 3D morphometric analyses of the distal femur and body of the lumbar vertebrae were performed using CT-Analyzer software (SkyScan 1173, Belgium). Regarding the region of interest (ROI), this work analyzed the 1.5 mm […] trabecular bone of the distal femur metaphysis, excluding the growth plate. The ROIs were delineated using a freehand drawing tool while maintaining a […] clearance from the endosteal surface. […] A global threshold of 60 (1.01573 g cm^-3) was applied to all scans to extract a physiologically accurate representation of the trabecular bone phase. […] All quantitative and structural parameters followed the nomenclature and units recommended by the American Society for Bone and Mineral Research (ASBMR) Histomorphometry Nomenclature Committee. After data quantification,^[ [26b] ^] 3D rendered images were generated to visualize the analyzed regions using the marching cube method. -H&E staining: Following decalcification, the specimens were fixed in paraffin and longitudinally sliced to a thickness of 3 μm using a microtome. Subsequently, each sample was affixed to a slide and exposed to a temperature of 55 °C. […] The slides underwent a 1 min wash in flowing purified water and immersed in Harris hematoxylin-I for 5 min, followed by a 1 min wash under flowing tap water. Sections were briefly immersed in ammonia water for 30 s and washed with tap water for 3 min. Subsequently, the sections were stained with Eosin Y for 2 min and 30 s, followed by gradual drying in 95%-100% ethanol. Any residual stain was rinsed with distilled water and each section was mounted. -Masson's trichrome staining: Following deparaffinization and hydration, the sections underwent treatment with a mordant containing a 5% iron alum solution in a dry oven at 56 °C for 30 min. Sections were washed under running tap water for 5-6 min to remove picric acid. Sections were stained with Weigert's iron hematoxylin solution for 10 min, followed by rinsing with purified water. A 5 min staining with Biebrich scarlet-acid fuchsin solution ensued, succeeded by washing with purified water. The sections were immersed in a phosphomolybdic-phosphotungstic acid solution for 5 min. After discarding the solution, the sections were washed with distilled water. Differentiation was performed in 1% glacial acetic acid solution for 3 min. The solution was discarded, and the remaining stain was washed with distilled water.

Where [7] appears, read: alendronate comparison study, 0.5 mg kg^−1, n = 6.

Each structure is given as a SMILES string.

In the case of `O=C1CCC(N2Cc3c(C#CCCCNC(=O)c4ccc(NC(=O)[C@@H]5NC6(CCCCC6)[C@@]6(C(=O)Nc7cc(Cl)ccc76)[C@H]5c5cccc(Cl)c5F)cc4)cccc3C2=O)C(=O)N1` (stereo partly drawn) [MD224, reference compound], the “degradation efficiency of EGFP‐MDM2 by concentration” value in the data set on EGFP‐MDM2 (low concentrations (0.01–0.1 µM) versus higher concentrations (1–10 µM)) is listed as “greater degradation efficiency of EGFP‐MDM2 compared to higher concentrations”.

On to `COc1ccc(C2=N[C@H](c3ccc(Cl)cc3)[C@H](c3ccc(Cl)cc3)N2C(=O)N2CCN(CC(=O)NCCCCCCCCCCCOc3cccc4c3C(=O)N(C3CCC(=O)NC3=O)C4=O)C(=O)C2)c(OC(C)C)c1` (stereo partly drawn) [CL145], for which the “decrease in MDM2 levels compared to the basal level” value on MDM2 [1] was “over 80%”.

The term Kd denotes a measure of binding affinity in units of concentration. In the case of `COc1ccc(C2=NC(c3ccc(Cl)cc3)C(c3ccc(Cl)cc3)N2C(=O)N2CCN(CC(=O)NCCCCCCCC#Cc3cccc4c3C(=O)N(C3CCC(=O)NC3=O)C4=O)C(=O)C2)c(OC(C)C)c1` (stereo not drawn) [CL174], the “concentration at which maximum degradation efficiency was achieved” value in the data set with EGFP‐MDM2 (live imaging, 0.01 to 10 µM) is 1 µM. In addition, the “nuclear EGFP signal” value with EGFP‐MDM2 (live imaging, treatment for 4 h) was “almost completely turned off the nuclear EGFP signal”. Besides, at MDM2 [1], the “MDM2 degradation (western blot)” value is “effectively decreased MDM2 levels” and the “decrease in MDM2 levels compared to the basal level” value was “over 80%”. The “maximal degradation concentration (Dmax)” value at MDM2 [1] (quantified western blot, 1 nM to 50 µM, n = 2) was found to be 0.5 μΜ. On MDM2 [1] (quantified western blot, 1 nM to 50 µM, n = 2, read-out: half‐maximal degradation concentration (DC50)), the DC50 was 0.06 µM. Moreover, the Kd at MDM2 [2] was found to be 1.27 µM.

For `CC(C)C[C@H](NC(=O)[C@H](CCc1ccccc1)NC(=O)CN1CCOCC1)C(=O)N[C@@H](Cc1ccccc1)C(=O)N[C@@H](CC(C)C)C(=O)[C@@]1(C)CO1` [carfilzomib], the “effect on PROTAC-induced MDM2 proteolysis” value at MDM2 [3] is “blocked the efficacy of PROTAC in a dose‐dependent manner”.

With `COc1ccc(C2=N[C@@H](c3ccc(Cl)cc3)[C@@H](c3ccc(Cl)cc3)N2C(=O)N2CCNC(=O)C2)c(OC(C)C)c1` [Nutlin-3, reference compound], the cell viability result in the data set with hBMSCs [4] is reported as “without adversely affecting cell viability”. Further, in the data set on hBMSCs [5], the “calcium deposits compared to the control group” value is recorded as “significantly increased”. Besides, the “osteocalcin (OCN) protein intensity compared to the control group” value with osteocalcin (OCN) is on record as “no statistically significant difference”. Further, the “bone histology (H&E staining) versus OVX group” value in data set [6] (tibia and femur tissues) is “no significant differences”.

As to `NCCCC(O)(P(=O)(O)O)P(=O)(O)O` [alendronate, reference compound], in data set [6] (setting [7]), the “increase in trabecular thickness (Tb.Th) relative to the OVX group” value amounted to 17.07% and the “recovery in BV/TV relative to the OVX group” value is 38.66%.

As for `COc1ccc(C2=N[C@@H](c3ccc(Cl)cc3)[C@@H](c3ccc(Cl)cc3)N2C(=O)N2CCN(CC(=O)NCCOCCOCCNC(=O)CN3CCN(C(=O)N4C(c5ccc(OC)cc5OC(C)C)=N[C@H](c5ccc(Cl)cc5)[C@@H]4c4ccc(Cl)cc4)CC3=O)C(=O)C2)c(OC(C)C)c1` [CL117], the “MDM2 degradation (western blot)” value on MDM2 [1] was “did not induce the degradation of MDM2”.

For `COc1ccc(C2=N[C@H](c3ccc(Cl)cc3)[C@H](c3ccc(Cl)cc3)N2C(=O)N2CCN(CC(=O)OC(C)(C)C)C(=O)C2)c(OC(C)C)c1` [CL139], on MDM2 [1], the “MDM2 degradation (western blot)” value is recorded as “did not induce the degradation of MDM2”.

The record behind these values is publication PMC12097015, “Development of MDM2‐Targeting PROTAC for Advancing Bone Regeneration” (Advanced Science, 2025).
